Patent publication US20100178652A1, “Materials and Methods for the Detection, Prevention and Treatment of Autoimmune Disease” (priority 2007, published 2010)

Assays:
[1] = test system: STAT5 phosphorylation; test: Persistence of STAT5 phosphorylation in mature myeloid cells when GM-CSF signaling is blocked; type: cell-based, NOD mouse; conditions: NOD mature myeloid cells, once activated; inhibition of GM-CSF signaling
Text: Flow cytometric analysis of fluorescently-conjugated antibody surface and intracellular binding will be used to phenotypically identify myeloid cells and quantify the level of STAT5 tyrosine phosphorylation in cells ex vivo and after in vitro stimulation. Cells will be first labeled with anti-CD11b and anti-IgM antibody conjugates to identify monocytes and macrophages (CD11b+/IgM−) in the sample, then fixed with 2% (v/v Cf) formaldehyde and permeabilized using 0.5% saponin in a high protein, isotonic buffer. Intracellular staining of STAT5Ptyr will be done using APC-conjugated anti-STAT5Ptyr specific monoclonal antibodies (Upstate Biotech, conjugated using Prozyme APC-labeling kit). This method is well developed in our laboratory and has shown good consistency in current studies. We will analyze the percentage of positive myeloid cells (% STATPtyr+/CD11b+) as well as mean fluorescence (MF) to assess both the number of cells in the myeloid population with activated STAT5 and the relative amount of phosphorylated STAT5 per cells after treatment. After flow analysis, the labeled cells are centrifuged onto slides and stain them for chromatin (DAPI, Molecular Probes). These cells were used for imaging by deconvolution microscopy as previously described and then used 3 dimensional projection rotational analysis to identify subcellular location of activated STAT5.

[2] = test system: STAT5 phosphorylation; conditions: mature monocytes and macrophages; blocking GM-CSF signaling; ref [20]; cited from earlier work

**Q.** What does the source list for `N#C/C(=C/c1ccc(O)c(O)c1)C(=O)NCc1ccccc1` [AG490]?
**A.** persistence of STAT5 phosphorylation [1]: not affected; persistence of phosphorylated STAT5 [2]: does not affect
